Test results from US4670440A (priority 1985, dated 1987).
Entries after “also recorded” stand apart in the source; their conditions may differ.

What was measured:
[1] = because of the low solubility; cited from earlier work
[2] = system: Pseudomonas aeruginosa and gram positive and gram negative bacteria; conditions: Antimicrobial Agents and Chemotherapy 1980, 17, 103-108; cited from earlier work
[3] = system: Pseudomonas Aeruginosa; assay: Minimal inhibiting concentration (MIC), agar-diffusion technique, series diluting method; conditions: norfloxacin dissolved in dimethyl-sulphoxide, THA salt in water
[4] = system: Staphylococcus aureus; assay: as above; conditions: norfloxacin dissolved in dimethyl-sulphoxide, THA salt in water
[5] = Watersolubility (literature / general statement); format: physicochemical; conditions: water, new compound of the Formula I
[6] = system: E. Coli; assay: Minimal inhibiting concentration (MIC), agar-diffusion technique, series diluting method; format: cell-based; conditions: in vitro; norfloxacin dissolved in dimethyl-sulphoxide, THA salt in water; listed as Norfloxacin-THA-salt
[7] = Absorption by the organism / through the intestines; format: in vivo; conditions: compound according to the invention; no test data shown
[8] = in vitro, listed as Norfloxacin-THA-salt

SMILES | material absorbed going through the intestines [1] | activity in the therapy of urethral infections [2] | MIC ([3]; Pseudomonas aeruginosa, read-out: MIC value, in vitro) [µg/mL] | MIC ([4]; Staphylococcus aureus, read-out: MIC value, in vitro) [µg/mL] | solubility [5] [mg/mL] | MIC value [6] [µg/mL] | absorption (in words) [7] | biological utilization [7] | MIC value [3, 8] [µg/mL] | MIC value [4, 8] [µg/mL]
CCn1cc(C(=O)O)c(=O)c2cc(F)c(N3CCNCC3)cc21 [Norfloxacin, 1-ethyl-4-oxo-6-fluoro-7-(1-piperazinyl)-1,4-dihydro-quinoline-3-carboxylic acid, reference compound] | about 40% | good activity | 0.5 to 0.75 | 0.25 to 0.5 | – | – | – | – | – | –
CCn1cc(C(=O)O)c(=O)c2cc(F)c(N3CCNCC3)cc21 [Compound of the Formula I, N,N,N-trimethyl-2-hydroxyethyl-ammonium-[1-ethyl-6-fluoro-4-oxo-7-(1-piperazinyl)-1,4-dihydro-quinoline-3-carboxylate]] | – | – | – | – | > 1000 | 0.05 to 0.25 | better absorption; also recorded: quick absorption; also recorded: excellent absorption | good biological utilization | 0.25 to 0.5 | 0.25
